Activity calls are given as the source filed them. No cut-off for these calls is given here.
Columns and labels:
[1] = test system: LNCaP C4-2; assay: Cytotoxicity against human LNCaP C4-2 cells assessed as inhibition of cell survival at 2.5 uM incubated for 72 hrs by methylene blue survival assay; assay type: functional
[2] = target: Baculoviral IAP repeat-containing protein 5 (Homo sapiens) (UniProt O15392); assay: Inhibition of survivin-GAL4-DBD dimerization (unknown origin) expressed in human LNCaP C4-2 cells incubated for 24 hrs by SEAP reporter based mammalian two hybrid assay; assay type: cell-based
Chain of Baculoviral IAP repeat-containing protein 5 (Homo sapiens) (O15392 whole entry, the tested form may be a part): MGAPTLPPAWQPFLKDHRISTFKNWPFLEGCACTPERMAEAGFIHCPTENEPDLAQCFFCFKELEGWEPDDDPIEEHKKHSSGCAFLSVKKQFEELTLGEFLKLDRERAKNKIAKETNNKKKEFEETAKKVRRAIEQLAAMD

[3] = test system: PC-3; assay: Cytotoxicity against human PC-3 cells assessed as inhibition of cell survival at 2.5 uM incubated for 72 hrs by methylene blue survival assay; assay type: functional
[4] = target: Baculoviral IAP repeat-containing protein 5 (Homo sapiens) (UniProt O15392); assay: Inhibition of survivin dimerization in human PC-3 cells assessed as survivin degradation at 1 uM incubated for 24 hrs by Western blot analysis; assay type: cell-based
[5] = target: Baculoviral IAP repeat-containing protein 5 (Homo sapiens) (UniProt O15392); assay: Inhibition of survivin dimerization in human LNCaP C4-2 cells assessed as survivin degradation at 1 uM incubated for 24 hrs by Western blot analysis; assay type: cell-based
[6] = test system: PC-3; assay: Cytotoxicity against human PC-3 cells assessed as reduction in cell viability incubated for 72 hrs by methylene blue survival assay; assay type: functional, cell-based; conditions: PC-3, 72 h
[7] = test system: LNCaP C4-2; assay: Cytotoxicity against human LNCaP C4-2 cells assessed as reduction in cell viability incubated for 72 hrs by methylene blue survival assay; assay type: functional, cell-based; conditions: LNCaP C4-2, 72 h
[8] = test system: LNCaP C4-2; assay: Induction of apoptosis in human LNCaP C4-2 cells assessed as increase in cleaved caspase-3 level at 200 nM incubated for 24 hrs by Western blot analysis; assay type: functional, cell-based
[9] = test system: LNCaP C4-2; assay: Induction of apoptosis in human LNCaP C4-2 cells at 200 nM incubated for 24 hrs by annexin V-FITC and propidium iodide staining based flow cytometry; assay type: functional
[10] = test system: PC-3; assay: Induction of apoptosis in human PC-3 cells assessed as increase in cleaved caspase-3 level at 200 nM incubated for 24 hrs by Western blot analysis; assay type: functional, cell-based
[11] = target: Baculoviral IAP repeat-containing protein 5 (Homo sapiens) (UniProt O15392); assay: Inhibition of survivin dimerization in human LNCaP C4-2 cells assessed as survivin degradation at 500 nM incubated for 24 hrs by Western blot analysis; assay type: cell-based
[12] = test system: LNCaP C4-2; assay: Synergistic potentiation of docetaxel-induced cytotoxicity against human LNCaP C4-2 cells assessed as combination index for reduction in cell viability at docetaxel/7F1 ratios ((1:1, 3:1, and 1:3 using their cytotoxic IC50) incubated for 72 hrs by methylene blue survival assay; assay type: functional
[13] = test system: PC-3; assay: Synergistic potentiation of docetaxel-induced cytotoxicity against human PC-3 cells assessed as combination index for reduction in cell viability at docetaxel/7F1 ratios ((1:1, 3:1, and 1:3 using their cytotoxic IC50) incubated for 72 hrs by methylene blue survival assay; assay type: functional
[14] = test system: LNCaP C4-2; assay: Cytotoxicity against human LNCaP C4-2 cells with empty vector-transfection assessed as reduction in cell viability incubated for 72 hrs by methylene blue survival assay; assay type: functional, cell-based; conditions: LNCaP C4-2, 72 h
[15] = test system: LNCaP C4-2; assay: Cytotoxicity against human LNCaP C4-2 cells with survivin overexpression assessed as reduction in cell viability incubated for 72 hrs by methylene blue survival assay; assay type: functional, cell-based; conditions: LNCaP C4-2, 72 h
[16] = target: Baculoviral IAP repeat-containing protein 5 (Homo sapiens) (UniProt O15392); assay: Inhibition of survivin dimerization in human PC-3 cells assessed as survivin degradation at 500 nM incubated for 24 hrs by Western blot analysis; assay type: cell-based
[17] = test system: PC-3; assay: Induction of apoptosis in human PC-3 cells at 200 nM incubated for 24 hrs by annexin V-FITC and propidium iodide staining based flow cytometry; assay type: functional

SMILES	inhibition at 2.5 µM [1] [%]	inhibition [2]	inhibition at 2.5 µM [3] [%]	inhibition [4]	inhibition [5]	IC50 [6] [nM]	IC50 [7] [nM]	Activity [8]	Activity [9] [%]	Activity [10]	inhibition [11]	CI [12]	CI [13]	IC50 [14] [nM]	IC50 [15] [nM]	inhibition [16]	Activity [17] [%]
Nc1nonc1C(=O)N/N=C1\c2ccccc2-c2nc3nonc3nc21	50	Active	50	Active	Active	2990	2470	–	–	–	–	–	–	–	–	–	–
O=C1c2ccccc2-c2nc3nonc3nc21	80	Active	> 80	Active	Active	160	170	Active	20	Active	Active	0.025	0.025	200	950	Active	20
